What all share (assay type): biochemical
One experiment concerns the target Maltase. Description: α-glucosidase inhibition, rat small intestinal brush border membrane, maltose substrate. To be noted: rat small intestine brush border membrane; maltose (74 mM); 0.1M maleate buffer (pH6.0); 37° C. for 30 minutes. Here is the method:
(§1) Brush border membrane follicles of rat's small intestine were prepared in accordance with the literature (Kessler, M. et al., Biochem. Biophys. Act, 1978, 506, 136), and a suspension of the follicles in 0.1M maleate buffer (pH6.0) was used as an intraintestinal α-glucosidase (maltase, sucrose and isomaltase).
A compound to be tested was dissolved in methylsulfoxide (DMSO) and the resulting solution was diluted with 0.1M maleate buffer to prepare a solution of the testing compound (DMSO concentration: 10%). A solution of a substrate (sucrose (74 mM), maltose (74 mM) or isomaltose (74 mM, […]) in the maleate buffer, a solution (25 μl) of the testing compound and the enzyme solution (25 μl) were mixed and the resulting solution was incubated at 37° C. for 30 minutes. Immediately after incubation, the resulting solution was heated by boiling water to terminate the reaction and mixed with water (150 μl). The concentration of glucose was measured by glucose oxidase method. The final concentration of DMSO in the testing solution was set to 2.5%, and no influence of DMSO on an inhibitory activity was detected. A 50% inhibitory concentration (IC50) was computed from the measured values.

A further experiment deals with T1, Isomaltase (Rattus norvegicus, UniProt P23739).
T1 construct: Brush border membrane follicles of rat's small intestine were prepared; from tissue; host or cells: rat small intestine brush border membrane vesicles
Description: α-glucosidase inhibition, rat small intestinal brush border membrane, isomaltose substrate. To be noted: rat small intestine brush border membrane; isomaltose (74 mM); 0.1M maleate buffer (pH6.0); 37° C. for 30 minutes. Here is the method:
as §1
(§2) A compound to be tested was dissolved in methylsulfoxide (DMSO) and the resulting solution was diluted with 0.1M maleate buffer to prepare a solution of the testing compound (DMSO concentration: 10%). […] A 50% inhibitory concentration (IC50) was computed from the measured values.

For the next experiment, the target named is T2, Sucrase (Rattus norvegicus, UniProt P23739).
T2 construct: Brush border membrane follicles of rat's small intestine were prepared; from tissue; host or cells: rat small intestine brush border membrane vesicles
Description: α-glucosidase inhibition, rat small intestinal brush border membrane, sucrose substrate. To be noted: rat small intestine brush border membrane; sucrose (74 mM); 0.1M maleate buffer (pH6.0); 37° C. for 30 minutes. Here is the method: as §1, §2

The text below walks through data of patent US9073897B2, “Cyclic sulfonium salt, process for production of same, and α-glucosidase inhibitor comprising same” (KINKI UNIVERSITY, priority 2011, dated 2015).

By IC50 is commonly meant the concentration at which inhibition is half-maximal. Read a low IC50 as inhibition by little substance.

T1 sequence (P23739 whole entry): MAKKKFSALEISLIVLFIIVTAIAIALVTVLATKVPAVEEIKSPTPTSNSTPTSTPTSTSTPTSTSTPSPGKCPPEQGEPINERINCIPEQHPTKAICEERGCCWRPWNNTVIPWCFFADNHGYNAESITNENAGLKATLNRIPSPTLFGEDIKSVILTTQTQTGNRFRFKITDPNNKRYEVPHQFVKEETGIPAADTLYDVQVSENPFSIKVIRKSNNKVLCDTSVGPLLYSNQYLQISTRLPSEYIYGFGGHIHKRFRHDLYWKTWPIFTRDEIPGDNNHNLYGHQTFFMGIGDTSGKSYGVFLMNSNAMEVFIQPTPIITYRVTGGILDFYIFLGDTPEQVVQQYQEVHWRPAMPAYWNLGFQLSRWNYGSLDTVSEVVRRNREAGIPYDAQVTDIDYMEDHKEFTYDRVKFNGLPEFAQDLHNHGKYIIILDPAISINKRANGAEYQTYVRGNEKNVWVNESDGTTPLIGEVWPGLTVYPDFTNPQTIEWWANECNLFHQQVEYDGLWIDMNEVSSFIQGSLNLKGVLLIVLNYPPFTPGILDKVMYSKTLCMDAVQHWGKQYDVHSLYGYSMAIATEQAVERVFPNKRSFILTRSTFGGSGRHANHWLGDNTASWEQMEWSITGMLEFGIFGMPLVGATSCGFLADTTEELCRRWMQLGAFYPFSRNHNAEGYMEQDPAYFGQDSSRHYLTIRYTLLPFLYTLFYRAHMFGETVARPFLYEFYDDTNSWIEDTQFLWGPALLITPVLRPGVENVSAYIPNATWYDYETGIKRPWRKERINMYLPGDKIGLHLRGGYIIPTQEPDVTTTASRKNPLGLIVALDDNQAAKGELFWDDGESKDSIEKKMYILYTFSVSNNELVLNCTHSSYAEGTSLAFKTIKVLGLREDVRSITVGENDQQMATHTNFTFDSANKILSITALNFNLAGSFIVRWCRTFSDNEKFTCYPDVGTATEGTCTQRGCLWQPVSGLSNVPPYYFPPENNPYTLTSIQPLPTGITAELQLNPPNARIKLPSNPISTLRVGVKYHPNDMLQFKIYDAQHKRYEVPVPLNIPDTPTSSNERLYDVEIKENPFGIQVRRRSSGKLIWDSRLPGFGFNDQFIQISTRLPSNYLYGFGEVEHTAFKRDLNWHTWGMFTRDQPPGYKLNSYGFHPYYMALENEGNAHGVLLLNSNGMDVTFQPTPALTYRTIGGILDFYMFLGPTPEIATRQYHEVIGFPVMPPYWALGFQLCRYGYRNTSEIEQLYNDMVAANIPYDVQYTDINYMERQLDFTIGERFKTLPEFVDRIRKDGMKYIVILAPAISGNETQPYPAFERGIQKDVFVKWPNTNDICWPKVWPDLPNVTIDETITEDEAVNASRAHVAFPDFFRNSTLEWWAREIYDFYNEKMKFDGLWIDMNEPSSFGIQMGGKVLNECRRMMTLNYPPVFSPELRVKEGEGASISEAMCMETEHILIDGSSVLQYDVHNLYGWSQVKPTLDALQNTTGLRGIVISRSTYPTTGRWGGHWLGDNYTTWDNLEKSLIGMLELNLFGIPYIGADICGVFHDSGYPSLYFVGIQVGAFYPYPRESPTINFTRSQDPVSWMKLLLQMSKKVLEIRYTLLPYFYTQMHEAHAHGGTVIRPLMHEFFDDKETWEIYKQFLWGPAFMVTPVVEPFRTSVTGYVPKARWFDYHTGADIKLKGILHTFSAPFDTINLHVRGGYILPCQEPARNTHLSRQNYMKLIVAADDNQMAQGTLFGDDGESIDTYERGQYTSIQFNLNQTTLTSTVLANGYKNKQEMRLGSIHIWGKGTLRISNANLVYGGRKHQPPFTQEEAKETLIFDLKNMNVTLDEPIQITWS
T2 sequence (P23739 whole entry): as above

`CCCCCCCCCCCCCOC(CO)C(O)C[S+]1CC(O)C(O)C1CO` [Compound (Ie), 1,4-Dideoxy-1,4-[(R)-[4-deoxy-2-O-(1-tridecyl)-D-erythritol-4-yl]episulfoniumylidene]-D-arabitol chloride]: the “α-glucosidase (IC50) Maltase” value on Maltase was 1.04 µg/mL. In addition, the IC50 is 2170 nM at Isomaltase and 2950 nM against Sucrase.
Taken in the same sequence, the figures for `O=[N+]([O-])c1ccc(COC(CO)C(O)C[S+]2CC(O)C(O)C2CO)cc1` [Compound (Iv), 1,4-Dideoxy-1,4-[(R)[4-deoxy-2-O-(p-nitrobenzyl)-D-erythritol-4-yl]episulfoniumylidene]-D-arabitol chloride] were 0.68 µg/mL, 589 nM and 973 nM.
`CC(C)(C)COC(CO)C(O)C[S+]1CC(O)C(O)C1CO` [Compound (If), 1,4-Dideoxy-1,4-[(R)-[4-deoxy-2-O-neopentyl-D-erythritol-4-yl]episulfoniumylidene]-D-arabitol chloride]: the “α-glucosidase (IC50) Maltase” value on Maltase is 0.3 µg/mL. Moreover, the results for the IC50 against Isomaltase and against Sucrase were 860 nM and 277 nM, respectively.
For `OCC(CO)N[C@H]1C[C@](O)(CO)[C@@H](O)[C@H](O)[C@H]1O` [voglibose, reference compound], the values for the half-maximal inhibitory concentration (IC50) against Isomaltase and on Sucrase were 7860 nM and 823 nM, respectively.
Consider `CCCCCCCOC(CO)C(O)C[S+]1CC(O)C(O)C1CO` [Compound (Id), 1,4-Dideoxy-1,4-[(R)-[4-deoxy-2-O-(1-heptyl)-D-erythritol-4-yl]episulfoniumylidene]-D-arabitol chloride], for which the “α-glucosidase (IC50) Maltase” value at Maltase was determined as 0.8 µg/mL. For the same compound, the 50% inhibitory concentration (IC50) is 707 nM against Isomaltase and 679 nM at Sucrase.
Consider `CCCCCOC(CO)C(O)C[S+]1CC(O)C(O)C1CO` [Compound (Ic), 1,4-Dideoxy-1,4-[(R)-[4-deoxy-2-O-(1-pentyl)-D-erythritol-4-yl]episulfoniumylidene]-D-arabitol chloride], for which the “α-glucosidase (IC50) Maltase” value on Maltase came to 1.52 µg/mL. The IC50 against Isomaltase was 1440 nM; at Sucrase, 1540 nM.
Taken in the same sequence, the figures for `OCc1ccc(COC(CO)C(O)C[S+]2CC(O)C(O)C2CO)cc1` [Compound (Iw), 1,4-Dideoxy-1,4-[(R)-[4-deoxy-2-O-(p-hydroxymethyl)benzyl)-D-erythritol-4-yl]episulfoniumylidene]-D-arabitol chloride] were 1 µg/mL, 799 nM and 2130 nM.
Take `CCOC(CO)C(O)C[S+]1CC(O)C(O)C1CO` [Compound (Ib), 1,4-Dideoxy-1,4-[(R)-[4-deoxy-2-O-ethyl-D-erythritol-4-yl]episulfoniumylidene]-D-arabitol chloride]: the values for the IC50 against Isomaltase and at Sucrase were 953 nM and 423 nM, respectively.
As for `OCC(OCc1ccc(C(F)(F)F)cc1)C(O)C[S+]1CC(O)C(O)C1CO` [Compound (Is), 1,4-Dideoxy-1,4-[(R)-[4-deoxy-2-O-(p-trifluoromethylbenzyl)-D-erythritol-4-yl]episulfoniumylidene]-D-arabitol chloride], on Maltase, the “α-glucosidase (IC50) Maltase” value was 0.98 µg/mL. Also, the 50% inhibitory concentration (IC50) is 919 nM on Isomaltase and 1350 nM against Sucrase.
For the compound `OCC(OCc1cccc(Cl)c1)C(O)C[S+]1CC(O)C(O)C1CO` [Compound (Il), 1,4-Dideoxy-1,4-[(R)-[2-O-(m-chlorobenzyl)-4-deoxy-D-erythritol-4-yl]episulfoniumylidene]-D-arabitol chloride], at Maltase, the “α-glucosidase (IC50) Maltase” value was 0.53 µg/mL. Further, the half-inhibitory concentration (IC50) at Isomaltase was 816 nM; on Sucrase it was 2110 nM.
Taken in the same sequence, the figures for `Cc1cccc(COC(CO)C(O)C[S+]2CC(O)C(O)C2CO)c1` [Compound (Ii), 1,4-Dideoxy-1,4-[(R)-[4-deoxy-2-O-(m-methylbenzyl)-D-erythritol-4-yl]episulfoniumylidene]-D-arabitol chloride] were 0.84 µg/mL, 974 nM and 3620 nM.
Taken in the same sequence, the figures for `COC(CO)C(O)C[S+]1CC(O)C(O)C1CO` [Compound (Ia), 1,4-Dideoxy-1,4-[(R)-[4-deoxy-2-O-methyl-D-erythritol-4-yl]episulfoniumylidene]-D-arabitol chloride] were 5.3 µg/mL, 1450 nM and 1710 nM.
`Cc1ccccc1COC(CO)C(O)C[S+]1CC(O)C(O)C1CO` [Compound (Ih), 1,4-Dideoxy-1,4-[(R)-[4-deoxy-2-O-(o-methylbenzyl)-D-erythritol-4-yl]episulfoniumylidene]-D-arabitol chloride]: the “α-glucosidase (IC50) Maltase” value at Maltase came out at 0.66 µg/mL. The concentration for half-maximal inhibition (IC50) at Isomaltase is 1340 nM; on Sucrase, 1140 nM.
Taken in the same sequence, the figures for `Cc1ccc(COC(CO)C(O)C[S+]2CC(O)C(O)C2CO)cc1` [Compound (Ij), 1,4-Dideoxy-1,4-[(R)-[4-deoxy-2-O-(p-methylbenzyl)-D-erythritol-4-yl]episulfoniumylidene]-D-arabitol chloride] were 0.86 µg/mL, 1890 nM and 3060 nM.
Taken in the same sequence, the figures for `OCC(OCc1ccccc1)C(O)C[S+]1CC(O)C(O)C1CO` [Compound (Ig) (X = Cl), 1,4-Dideoxy-1,4-[(R)-[2-O-benzyl-4-deoxy-D-erythritol-4-yl]episulfoniumylidene]-D-arabitol chloride] were 0.58 µg/mL, 579 nM and 1590 nM.
Turning to `F[B-](F)(F)F.OC[C@H](OCc1ccccc1)[C@H](O)C[S@+]1C[C@@H](O)[C@H](O)[C@H]1CO` [Compound (Ig) (X = BF4), 1,4-dideoxy-1,4-[(R)-[2-O-benzyl-4-deoxy-D-erythritol-4-yl]episulfoniumylidene]-D-arabitol tetrafluoroborate], the “α-glucosidase (IC50) Maltase” value on Maltase came out at 0.44 µg/mL. Moreover, at Isomaltase, the “α-glucosidase (IC50) Isomaltase” value stood at 0.12 µg/mL. Further, the “α-glucosidase (IC50) Sucrase” value on Sucrase was found to be 0.32 µg/mL.
As to `OCC(OCc1ccccc1Cl)C(O)C[S+]1CC(O)C(O)C1CO` [Compound (Ik), 1,4-Dideoxy-1,4-[(R)-[2-O-(o-chlorobenzyl)-4-deoxy-D-erythritol-4-yl]episulfoniumylidene]-D-arabitol chloride], the “α-glucosidase (IC50) Maltase” value at Maltase was 0.31 µg/mL. The figures for the half-maximal inhibitory concentration (IC50) against Isomaltase and against Sucrase were 684 nM and 237 nM, respectively.
`OCC(OCc1ccc(Cl)cc1)C(O)C[S+]1CC(O)C(O)C1CO` [Compound (Im), 1,4-Dideoxy-1,4-[(R)-[2-O-(p-chlorobenzyl)-4-deoxy-D-erythritol-4-yl]episulfoniumylidene]-D-arabitol chloride]: the “α-glucosidase (IC50) Maltase” value on Maltase came to 0.89 µg/mL. In addition, the IC50 against Isomaltase was 1790 nM; on Sucrase, 1900 nM.
Taken in the same sequence, the figures for `O=S(=O)([O-])OC(CO)C(O)C[S+]1CC(O)C(O)C1CO` (stereo not shown) [Salacinol, salacinol, reference compound] were 5.2 µg/mL, 3890 nM and 4790 nM.
